Patent publication US4495189A, “Condensed pyrimidines” (priority 1975, dated 1985)
Like-named read-outs stand apart in the source and are kept apart here.

Legend:
[1] = in vivo; conditions: mouse, po
[2] = tested on: PGE2; assay: Vessel wall permeability inhibition, prostaglandin E2; assay type: in vivo
Excerpt: (§1) Thus, it is appropriate to test the effectiveness of a representative compound of the invention in the inflammation response caused by prostaglandin E1 and E2, particularly from the point of view of the vessel wall permeability, which plays an important role in the inflammation.

[3] = tested on: PGE1; assay: Vessel wall permeability inhibition, prostaglandin E1; assay type: in vivo
Excerpt: as §1

[4] = in vivo; conditions: rat, po
[5] = tested on: PGE2; assay: Oedema inhibition, inflammation caused by prostaglandin E2; assay type: in vivo
Excerpt: as §1

[6] = tested on: PGE1; assay: Oedema inhibition, inflammation caused by prostaglandin E1; assay type: in vivo
Excerpt: as §1

[7] = tested on: rat paw oedema; assay: Antiphlogistic activity, rat paw oedema method (Domenju); assay type: in vivo
Method: The antiphlogistic activity was tested by the rat paw oedema method (Domenju, R: Ann. Univ. Saraviensis 1,317, 1953). The compound were compared with the currently used therapeutic agents Phenylbutazone, aspirin, Indomethacin, Mebron and Amidazophenum.

[8] = Acute toxicity on rats (i.v.); conditions: rat, in vivo, iv
Excerpt: (§2) Acute toxicity, analgesic and platelet aggregation inhibiting activity of "CH-105" was compared with the same activities of RIMAZOLIUM. RIMAZOLIUM is a commercial product, which is a quaternary salt chemically, but exerts its activity as a tautomeric enamine [Arzneimittel Forschung 21, 717-719 and 719-727 (1971)].

[9] = tested on: rats; assay: Analgesic activity on rats, hot plate, per os; assay type: in vivo; conditions: Rattus norvegicus, po
Excerpt: as §2

[10] = tested on: collagen induced thrombocyte aggregation; assay: Inhibition of collagen induced thrombocyte aggregation (in vitro); assay type: cell-based
Excerpt: In Table 6 the inhibition of collagen induced thrombocyte aggregation under in vitro conditions is shown.

[11] = tested on: mice; assay: Analgesic activity on "Writing" test, on mice; assay type: in vivo; conditions: Mus musculus
Excerpt: as §2

[12] = tested on: platelet aggregation; assay: Platelet aggregation inhibiting activity, comparison of CH-105 and Rimazolium; conditions: same conditions for CH-105 and Rimazolium
Excerpt: as §2

[13] = Antiphlogistic activity, method of Northove; assay type: in vivo; conditions: 100 mg/kg
Excerpt: Favorable antiphlogistic properties were found in tests carried out by the method of Northove.

[14] = tested on: rats; assay: Chronic toxicity test, ulcerogenicity in rats; assay type: in vivo; conditions: one-month old rats, 50 mg/kg, chronic toxicity tests
[15] = Pharmacological and toxicological tests (summary)

CC(=O)Oc1ccccc1C(=O)O [Aspirin]
LD50 [1]: 1100 mg/kg
Vessel wall permeability inhibition %, PGE2 ([2]; 200 mg/kg): 25%
Vessel wall permeability inhibition %, PGE2 ([2]; 500 mg/kg): 50%
Vessel wall permeability inhibition %, PGE1 ([3]; 200 mg/kg): 30%
Vessel wall permeability inhibition %, PGE1 ([3]; 500 mg/kg): 42%
LD50 [4]: 1600 mg/kg
Oedema inhibition %, PGE2 ([5]; 200 mg/kg): 20%
Oedema inhibition %, PGE2 ([5]; 500 mg/kg): 54%
Oedema inhibition %, PGE1 ([6]; 200 mg/kg): 41%
Oedema inhibition %, PGE1 ([6]; 500 mg/kg): 45%

CC1CCC=C2N(C)C=C(C(N)=O)C(=O)N21 (centres unmarked) [CH-105, 1,6-dimethyl-3-carbamoyl-4-oxo-1,6,7,8-tetrahydro-4H-pyrido[1,2-a]pyrimidine]
Oedema inhibiting effect in %, 1 hour after the administration of the substance ([7]; 100 mg/kg): 25%
Oedema inhibiting effect in %, 2 hours after the administration of the substance ([7]; 100 mg/kg): 34%
Oedema inhibiting effect in %, 1 hour after the administration of the substance ([7]; 300 mg/kg): 45%
Oedema inhibiting effect in %, 2 hours after the administration of the substance ([7]; 300 mg/kg): 52%
Oedema inhibiting effect in %, 24 hours after the administration of the substance ([7]; 300 mg/kg): 8%
LD50 [1]: 975 mg/kg
LD50 [8]: 960 µmol/kg
Vessel wall permeability inhibition %, PGE2 ([2]; 200 mg/kg): 35%
Vessel wall permeability inhibition %, PGE2 ([2]; 500 mg/kg): 50%
ED50 (modified writhing test): 70 mg/kg
Therapeutic Index (modified writhing test): 14
ED50 [9]: 410 µmol/kg
Inhibition of collagen induced thrombocyte aggregation in % ([10]; 1 × 10^-3 mole): 100%
Inhibition of collagen induced thrombocyte aggregation in % ([10]; 1 × 10^-4 mole): 90%
ED50 [11]: 210 µmol/kg
Vessel wall permeability inhibition %, PGE1 ([3]; 200 mg/kg): 40%
Vessel wall permeability inhibition %, PGE1 ([3]; 500 mg/kg): 40%
platelet aggregation inhibiting activity [12]: excellent platelet aggregation inhibiting activity
LD50 [4]: 750 mg/kg
Antiphlogistic activity (%), 1 hour [13]: 40%
Antiphlogistic activity (%), 2 hours [13]: 55%
Antiphlogistic activity (%), 24 hours [13]: 30%
Oedema inhibition %, PGE2 ([5]; 200 mg/kg): 31%
Oedema inhibition %, PGE2 ([5]; 500 mg/kg): 45%
ulcerogenicity [14]: not ulcerogenic
Oedema inhibition %, PGE1 ([6]; 200 mg/kg): 30%
Oedema inhibition %, PGE1 ([6]; 500 mg/kg): 42%
activity as an oedema inhibitor or a vessel wall permeability reducing agent ([6]; data of Table 2, PGE1 and PGE2, compared with aspirin): activity of the same range as the known active prostaglandinantagonist, aspirin
antiphlogistic activity, analgesic activity and therapeutic index (in words) [15]: significant antiphlogistic activity, analgesic activity and have a favorable therapeutic index

CC1CCC=C2N(C)C=C(C(=O)NC(C)(C)C)C(=O)N21 (centres unmarked) [Example 5, 1,6-dimethyl-3-(N-tert-butyl-carbamoyl)-4-oxo-1,6,7,8-tetrahydro-4H-pyrido(1,2a)pyrimidine]
Oedema inhibiting effect in %, 2 hours after the administration of the substance ([7]; 125 mg/kg): 50%
Inhibition of collagen induced thrombocyte aggregation in % ([10]; 1 × 10^-3 mole): 99%
Inhibition of collagen induced thrombocyte aggregation in % ([10]; 1 × 10^-4 mole): 85%

CC1CCC=C2N(C)C=C(C(=O)Nc3ccccc3)C(=O)N21 (centres unmarked) [Example 6, 1,6-dimethyl-3-(N-phenylcarbamoyl)-4-oxo-1,6,7,8-tetrahydro-4H-pyrido(1,2a)pyrimidine]
Oedema inhibiting effect in %, 2 hours after the administration of the substance ([7]; 500 mg/kg): 53%
Inhibition of collagen induced thrombocyte aggregation in % ([10]; 1 × 10^-3 mole): 56%
Inhibition of collagen induced thrombocyte aggregation in % ([10]; 1 × 10^-4 mole): 29%

CNC(=O)C1=CN(C)C2=CCCC(C)N2C1=O (centres unmarked) [Example 7, 1,6-dimethyl-3-(N-methyl-carbamoyl)-4-oxo-1,6,7,8-tetrahydro-4H-pyrido(1,2a)pyrimidine]
Oedema inhibiting effect in %, 2 hours after the administration of the substance ([7]; 500 mg/kg): 60%
Inhibition of collagen induced thrombocyte aggregation in % ([10]; 1 × 10^-3 mole): 100%
Inhibition of collagen induced thrombocyte aggregation in % ([10]; 1 × 10^-4 mole): 95%

CC1CCC=C2N(C)C=C(C(=O)NCCC(c3ccccc3)c3ccccc3)C(=O)N21 (centres unmarked) [Example 9, 1,6-dimethyl-3-[N-(3,3-diphenyl-propyl)-carbamoyl]-4-oxo-1,6,7,8-tetrahydro-4H-pyrido(1,2a)pyrimidine]
Inhibition of collagen induced thrombocyte aggregation in % ([10]; 1 × 10^-3 mole): 70%
Inhibition of collagen induced thrombocyte aggregation in % ([10]; 1 × 10^-4 mole): 60%

CC1CCC=C2N(C)C=C(C(=O)NCCc3ccccc3)C(=O)N21 (centres unmarked) [Example 11, 1,6-dimethyl-3-[N-(2-phenyl-ethyl)-carbamoyl]-4-oxo-1,6,7,8-tetrahydro-4H-pyrido(1,2a)pyrimidine]
Oedema inhibiting effect in %, 2 hours after the administration of the substance ([7]; 125 mg/kg): 38%
Inhibition of collagen induced thrombocyte aggregation in % ([10]; 1 × 10^-3 mole): 96%
Inhibition of collagen induced thrombocyte aggregation in % ([10]; 1 × 10^-4 mole): 92%

COc1ccc2c(c1)c(CC(=O)O)c(C)n2C(=O)c1ccc(Cl)cc1 [Indomethacin]
ED50 (modified writhing test): 2.4 mg/kg
Therapeutic Index (modified writhing test): 12

COc1cc(C)nc(-n2nc(C)cc2OC)n1 [Mebron]
Oedema inhibiting effect in %, 1 hour after the administration of the substance ([7]; 100 mg/kg): 8%
Oedema inhibiting effect in %, 2 hours after the administration of the substance ([7]; 100 mg/kg): 22%
Oedema inhibiting effect in %, 1 hour after the administration of the substance ([7]; 300 mg/kg): 25%
Oedema inhibiting effect in %, 2 hours after the administration of the substance ([7]; 300 mg/kg): 25%
Oedema inhibiting effect in %, 24 hours after the administration of the substance ([7]; 300 mg/kg): 3%
Therapeutic Index (in vivo): 4.3
ED50 (modified writhing test): 380 mg/kg
Antiphlogistic activity (%), 1 hour [13]: 23%
Antiphlogistic activity (%), 2 hours [13]: 23%
Antiphlogistic activity (%), 24 hours [13]: 0%

CCCCC1C(=O)N(c2ccccc2)N(c2ccccc2)C1=O [Phenylbutazone]
Oedema inhibiting effect in %, 1 hour after the administration of the substance ([7]; 100 mg/kg): 2%
Oedema inhibiting effect in %, 2 hours after the administration of the substance ([7]; 100 mg/kg): 2%
Oedema inhibiting effect in %, 1 hour after the administration of the substance ([7]; 200 mg/kg): 11%
Oedema inhibiting effect in %, 2 hours after the administration of the substance ([7]; 200 mg/kg): 10%
Oedema inhibiting effect in %, 24 hours after the administration of the substance ([7]; 200 mg/kg): 3%
Vessel wall permeability inhibition %, PGE2 ([2]; 100 mg/kg): 5%
Vessel wall permeability inhibition %, PGE2 ([2]; 200 mg/kg): 20%
ED50 (modified writhing test): 63 mg/kg
Vessel wall permeability inhibition %, PGE1 ([3]; 100 mg/kg): 10%
Vessel wall permeability inhibition %, PGE1 ([3]; 200 mg/kg): 20%
Antiphlogistic activity (%), 1 hour [13]: 13%
Antiphlogistic activity (%), 2 hours [13]: 20%
Antiphlogistic activity (%), 24 hours [13]: 0%
Oedema inhibition %, PGE2 ([5]; 100 mg/kg): 10%
Oedema inhibition %, PGE2 ([5]; 200 mg/kg): 28%
Oedema inhibition %, PGE1 ([6]; 100 mg/kg): 35%
Oedema inhibition %, PGE1 ([6]; 200 mg/kg): 15%

CCOC(=O)c1c[n+](C)c2n(c1=O)C(C)CCC2 (centres unmarked) [Rimazolium, 1,6-dimethyl-3-carbethoxy-4-oxo-6,7,8,9-tetrahydrohomopyrimidazol-methylsulfate]
LD50 [8]: 610 µmol/kg
ED50 [9]: 620 µmol/kg
ED50 [11]: 1050 µmol/kg
platelet aggregation inhibiting activity [12]: practically ineffective
